# Measurements reported in ChEMBL document CHEMBL4393657, “Tetrazole hybrids and their antifungal activities” (2019).
# Columns and labels:
# Format in all cases: functional
# [1] = system: Aspergillus niger; test: Antifungal activity against Aspergillus niger assessed as reduction in fungal cell growth incubated for 72 hrs by broth microdilution method
# [2] = system: Cryptococcus neoformans; test: Antifungal activity against Cryptococcus neoformans LA314 assessed as reduction in fungal cell growth incubated for 48 hrs by broth microdilution method; settings: LA314, 48 h
# [3] = system: Nakaseomyces glabratus; test: Antifungal activity against Candida glabrata assessed as reduction in fungal cell growth incubated for 48 hrs by broth microdilution method
# [4] = system: Candida albicans; test: Antifungal activity against Candida albicans assessed as reduction in fungal cell growth incubated for 48 hrs by broth microdilution method
# [5] = system: Candida tropicalis; test: Antifungal activity against Candida tropicalis assessed as reduction in fungal cell growth incubated for 48 hrs by broth microdilution method
# [6] = system: Candida parapsilosis; test: Antifungal activity against Candida parapsilosis ATCC 22019 assessed as reduction in fungal cell growth incubated for 48 hrs by broth microdilution method; settings: Lodderomyces parapsilosis, ATCC 22019, 48 h
# [7] = system: Pichia kudriavzevii; test: Antifungal activity against Candida krusei assessed as reduction in fungal cell growth incubated for 48 hrs by broth microdilution method
MIC [1],MIC [2],MIC [3],MIC [4],MIC [5],MIC [6],MIC [7],Structure (SMILES)
0.25 to 16 µg/mL,0.25 to 16 µg/mL,0.25 to 16 µg/mL,0.25 to 16 µg/mL,0.25 to 16 µg/mL,0.25 to 16 µg/mL,0.25 to 16 µg/mL,CCCCOc1ccccc1N1CCN(CCc2nnn([C@@H](C)[C@](O)(Cn3cncn3)c3ccc(F)cc3F)n2)CC1
0.5 to 16 µg/mL,0.5 to 16 µg/mL,0.5 to 16 µg/mL,0.5 to 16 µg/mL,0.5 to 16 µg/mL,0.5 to 16 µg/mL,0.5 to 16 µg/mL,CC(n1nnnc1CCN1CCN(c2ccc(F)cc2)CC1)C(O)(Cn1cncn1)c1ccc(F)cc1F (stereo not given)
0.25 to 16 µg/mL,0.25 to 16 µg/mL,0.25 to 16 µg/mL,0.25 to 16 µg/mL,0.25 to 16 µg/mL,0.25 to 16 µg/mL,0.25 to 16 µg/mL,C[C@H](n1nnc(CCN2CCN(c3ccccc3)CC2)n1)[C@](O)(Cn1cncn1)c1ccc(F)cc1F
0.5 to 16 µg/mL,0.5 to 16 µg/mL,0.5 to 16 µg/mL,0.5 to 16 µg/mL,0.5 to 16 µg/mL,0.5 to 16 µg/mL,0.5 to 16 µg/mL,OC(Cn1cncn1)(Cn1nnnc1CCN1CCN(c2ccc(F)cc2)CC1)c1ccc(F)cc1F (stereo not given)
1 to 16 µg/mL,1 to 16 µg/mL,1 to 16 µg/mL,1 to 16 µg/mL,1 to 16 µg/mL,1 to 16 µg/mL,1 to 16 µg/mL,OC(Cn1cncn1)(Cn1nnc(CCN2CCN(Cc3ccccc3)CC2)n1)c1ccc(F)cc1F (stereo not given)
0.5 to 16 µg/mL,0.5 to 16 µg/mL,0.5 to 16 µg/mL,0.5 to 16 µg/mL,0.5 to 16 µg/mL,0.5 to 16 µg/mL,0.5 to 16 µg/mL,COc1ccccc1N1CCN(CCc2nnnn2CC(O)(Cn2cncn2)c2ccc(F)cc2F)CC1 (stereo not given)
1 to 16 µg/mL,1 to 16 µg/mL,1 to 16 µg/mL,1 to 16 µg/mL,1 to 16 µg/mL,1 to 16 µg/mL,1 to 16 µg/mL,CC(n1nnc(CCN2CCN(c3ccccc3Cl)CC2)n1)C(O)(Cn1cncn1)c1ccc(F)cc1F (stereo not given)
1 to 16 µg/mL,1 to 16 µg/mL,1 to 16 µg/mL,1 to 16 µg/mL,1 to 16 µg/mL,1 to 16 µg/mL,1 to 16 µg/mL,CC(n1nnc(CCN2CCN(c3c(Cl)cccc3Cl)CC2)n1)C(O)(Cn1cncn1)c1ccc(F)cc1F (stereo not given)
0.5 to 16 µg/mL,0.5 to 16 µg/mL,0.5 to 16 µg/mL,0.5 to 16 µg/mL,0.5 to 16 µg/mL,0.5 to 16 µg/mL,0.5 to 16 µg/mL,OC(Cn1cncn1)(Cn1nnnc1CCN1CCN(c2ccc(Cl)cc2)CC1)c1ccc(F)cc1F (stereo not given)
1 to 16 µg/mL,1 to 16 µg/mL,1 to 16 µg/mL,1 to 16 µg/mL,1 to 16 µg/mL,1 to 16 µg/mL,1 to 16 µg/mL,OC(Cn1cncn1)(Cn1nnc(CCN2CCN(c3ccccn3)CC2)n1)c1ccc(F)cc1F (stereo not given)
0.5 to 16 µg/mL,0.5 to 16 µg/mL,0.5 to 16 µg/mL,0.5 to 16 µg/mL,0.5 to 16 µg/mL,0.5 to 16 µg/mL,0.5 to 16 µg/mL,OC(Cn1cncn1)(Cn1nnnc1CCN1CCN(c2ccccc2Cl)CC1)c1ccc(F)cc1F (stereo not given)
0.12 to 16 µg/mL,0.12 to 16 µg/mL,0.12 to 16 µg/mL,0.12 to 16 µg/mL,0.12 to 16 µg/mL,0.12 to 16 µg/mL,0.12 to 16 µg/mL,C[C@H](n1nnnc1CCN1CCN(c2ccccc2)CC1)[C@](O)(Cn1cncn1)c1ccc(F)cc1F
0.5 to 16 µg/mL,0.5 to 16 µg/mL,0.5 to 16 µg/mL,0.5 to 16 µg/mL,0.5 to 16 µg/mL,0.5 to 16 µg/mL,0.5 to 16 µg/mL,CC(n1nnnc1CCN1CCN(c2c(Cl)cccc2Cl)CC1)C(O)(Cn1cncn1)c1ccc(F)cc1F (stereo not given)
0.12 to 16 µg/mL,0.12 to 16 µg/mL,0.12 to 16 µg/mL,0.12 to 16 µg/mL,0.12 to 16 µg/mL,0.12 to 16 µg/mL,0.12 to 16 µg/mL,CCCCOc1ccccc1N1CCN(CCc2nnnn2[C@@H](C)[C@](O)(Cn2cncn2)c2ccc(F)cc2F)CC1
1 to 16 µg/mL,1 to 16 µg/mL,1 to 16 µg/mL,1 to 16 µg/mL,1 to 16 µg/mL,1 to 16 µg/mL,1 to 16 µg/mL,COc1ccc(N2CCN(CCc3nnn(CC(O)(Cn4cncn4)c4ccc(F)cc4F)n3)CC2)cc1 (stereo not given)
1 to 16 µg/mL,1 to 16 µg/mL,1 to 16 µg/mL,1 to 16 µg/mL,1 to 16 µg/mL,1 to 16 µg/mL,1 to 16 µg/mL,CCCCOc1ccccc1N1CCN(CCc2nnn(C(C)C(O)(Cn3cncn3)c3ccc(F)cc3F)n2)CC1 (stereo not given)
0.5 to 16 µg/mL,0.5 to 16 µg/mL,0.5 to 16 µg/mL,0.5 to 16 µg/mL,0.5 to 16 µg/mL,0.5 to 16 µg/mL,0.5 to 16 µg/mL,CCCCOc1ccccc1N1CCN(CCc2nnnn2C(C)C(O)(Cn2cncn2)c2ccc(F)cc2F)CC1 (stereo not given)
0.25 to 16 µg/mL,0.25 to 16 µg/mL,0.25 to 16 µg/mL,0.25 to 16 µg/mL,0.25 to 16 µg/mL,0.25 to 16 µg/mL,0.25 to 16 µg/mL,C[C@H](n1nnc(CCN2CCN(c3ccc(F)cc3)CC2)n1)[C@](O)(Cn1cncn1)c1ccc(F)cc1F
0.5 to 16 µg/mL,0.5 to 16 µg/mL,0.5 to 16 µg/mL,0.5 to 16 µg/mL,0.5 to 16 µg/mL,0.5 to 16 µg/mL,0.5 to 16 µg/mL,CC(n1nnnc1CCN1CCN(c2cccc(Cl)c2)CC1)C(O)(Cn1cncn1)c1ccc(F)cc1F (stereo not given)
0.12 to 16 µg/mL,0.12 to 16 µg/mL,0.12 to 16 µg/mL,0.12 to 16 µg/mL,0.12 to 16 µg/mL,0.12 to 16 µg/mL,0.12 to 16 µg/mL,C[C@H](n1nnnc1CCN1CCN(c2c(Cl)cccc2Cl)CC1)[C@](O)(Cn1cncn1)c1ccc(F)cc1F
